{
  "source": "patent US20060024234A1",
  "about": "“Protein markers for pharmaceuticals and related toxicity” (LARGE SCALE PROTEOMICS CORPORATION, A Division of Large …, priority 2000, published 2006)",
  "key": {"rat liver proteins [1]": {"test_system": "rat liver proteins", "experiment": "Proteome analysis (2-D gel electrophoresis) of liver of rats fed antilipemic drugs at low and high dose for 7 days (Examples 1-3)", "assay_type": "in vivo", "protocol": "(§1) The animals were guillotined after CO2 asphyxiation on the day following the last treatment. Liver samples (150 mg of the left apical lobe) were removed and flash frozen in liquid nitrogen and kept at −80° C. until analysis.\n(§2) The homogenates were centrifuged at 420,000×g at 22° C. for 30 min. […] The supernatant was removed, divided into four aliquots and stored at −80° C. until analysis.\n(§3) An Angelique™ computer-controlled gradient-casting system (Large Scale Biology Corporation, Rockville, Md.) was used to prepare the second-dimension SDS slab gels. […] Second-dimensional slab gels were run overnight at 160 V in cooled DALT tanks (10° C.) with buffer circulation and were taken out when the tracking dye reached the bottom of the gel. Following SDS electrophoresis, the slab gels were fixed overnight in 1.5 liters/10 gels of 50% ethanol/3% phosphoric acid and then washed three times for 30 min in 1.5 liters/10 gels of cold DI water. They were transferred to 1.5 liters/10 gels of 34% methanol/17% ammonium sulfate/3% phosphoric acid for one hour, and after the addition of one gram powdered Coomassie Blue G-250 the gels were stained for three days to achieve equilibrium intensity.\n(§4) Groupwise statistical comparisons were made to search for treatment-related protein abundance changes.\n(§5) For these experiments, only pharmaceutical grade compounds were used with the trademark identifying the source. […] In each experiment, the low dose was equivalent to the daily human therapeutic dose."}, "rat liver proteins [2]": {"biological_target": "T1, rat liver proteins (Rattus norvegicus, UniProt P05545)", "T1 construct": "The 2DGE protein pattern of rat liver illustrates over 1000 Coomassie Blue stained protein spots; from tissue; host or cells: liver (left apical lobe) of drug-fed F344 rats", "T1 sequence (P05545 21-416)": "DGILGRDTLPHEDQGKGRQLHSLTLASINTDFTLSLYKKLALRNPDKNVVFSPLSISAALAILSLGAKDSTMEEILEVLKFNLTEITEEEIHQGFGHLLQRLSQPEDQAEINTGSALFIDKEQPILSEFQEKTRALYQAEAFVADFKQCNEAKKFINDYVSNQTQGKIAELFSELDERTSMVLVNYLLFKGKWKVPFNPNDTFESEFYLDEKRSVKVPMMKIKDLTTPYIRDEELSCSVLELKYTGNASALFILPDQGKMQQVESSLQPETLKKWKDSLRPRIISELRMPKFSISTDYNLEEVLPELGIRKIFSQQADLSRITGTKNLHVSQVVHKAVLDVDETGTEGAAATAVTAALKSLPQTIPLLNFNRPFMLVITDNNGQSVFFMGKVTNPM", "experiment": "Proteome analysis (2-D gel electrophoresis) of liver of rats fed antilipemic drugs at low and high dose for 7 days (Examples 1-3)", "assay_type": "in vivo", "conditions": "rat liver, high doses", "protocol": "as §1, §2, §3, §4, §5"}, "rat liver proteins [3]": {"biological_target": "T2, rat liver proteins (Rattus norvegicus, UniProt P31044)", "T2 construct": "The 2DGE protein pattern of rat liver illustrates over 1000 Coomassie Blue stained protein spots; from tissue; host or cells: liver (left apical lobe) of drug-fed F344 rats", "T2 sequence (P31044 1-187)": "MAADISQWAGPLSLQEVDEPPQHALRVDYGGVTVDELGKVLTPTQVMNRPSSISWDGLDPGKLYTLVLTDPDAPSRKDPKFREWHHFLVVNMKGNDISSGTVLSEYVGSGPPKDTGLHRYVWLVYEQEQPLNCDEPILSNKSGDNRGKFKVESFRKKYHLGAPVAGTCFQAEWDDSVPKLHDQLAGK", "experiment": "Proteome analysis (2-D gel electrophoresis) of liver of rats fed antilipemic drugs at low and high dose for 7 days (Examples 1-3)", "assay_type": "in vivo", "conditions": "rat liver", "protocol": "as §1, §2, §3, §4, §5"}, "rat liver proteins [4]": {"biological_target": "T3, rat liver proteins (Rattus norvegicus, UniProt P55260)", "T3 construct": "The 2DGE protein pattern of rat liver illustrates over 1000 Coomassie Blue stained protein spots; from tissue; host or cells: liver (left apical lobe) of drug-fed F344 rats", "T3 sequence (P55260 1-319)": "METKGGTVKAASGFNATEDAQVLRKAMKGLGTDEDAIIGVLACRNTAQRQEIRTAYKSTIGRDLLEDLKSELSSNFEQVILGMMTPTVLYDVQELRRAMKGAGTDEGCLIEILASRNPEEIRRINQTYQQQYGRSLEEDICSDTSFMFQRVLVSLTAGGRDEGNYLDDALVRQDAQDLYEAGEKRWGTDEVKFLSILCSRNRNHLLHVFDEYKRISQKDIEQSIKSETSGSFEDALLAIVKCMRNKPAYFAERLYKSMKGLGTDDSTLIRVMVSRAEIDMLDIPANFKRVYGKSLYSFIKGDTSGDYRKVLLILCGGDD", "experiment": "Proteome analysis (2-D gel electrophoresis) of liver of rats fed antilipemic drugs at low and high dose for 7 days (Examples 1-3)", "assay_type": "in vivo", "conditions": "rat liver", "protocol": "as §1, §2, §3, §4, §5"}, "[5]": {"experiment": "Weight gain of treated rats", "assay_type": "in vivo, rat", "conditions": "high doses"}, "[6]": {"conditions": "rat liver, 1500 ppm in feed for 7 days"}},
  "data": [
    {"smiles": "CC[C@H](C)C(=O)O[C@H]1C[C@@H](C)C=C2C=C[C@H](C)[C@H](CC[C@@H]3C[C@@H](O)CC(=O)O3)[C@H]21", "note": "[Mevacor ®, lovastatin]", "values": [
      {"measurement": "protein abundance changes in liver at low dose", "setting": "rat liver proteins [1]; 16 ppm in feed for 7 days", "value": "not of statistical significance"},
      {"measurement": "protein kinase C inhibitor abundance", "setting": "rat liver proteins [1]; rat liver", "value": "increased"},
      {"measurement": "number of hepatic proteins with altered abundance, p<0.001", "setting": "rat liver proteins [1]; [6]", "value": 32},
      {"measurement": "number of liver proteins with altered abundance, p<0.0001", "setting": "rat liver proteins [1]; [6]", "value": 8},
      {"measurement": "number of liver proteins with altered abundance, p<0.005", "setting": "rat liver proteins [1]; [6]", "value": 64},
      {"measurement": "number of lost liver proteins", "setting": "rat liver proteins [1]; [6]", "value": "one"},
      {"measurement": "number of new liver proteins", "setting": "rat liver proteins [1]; [6]", "value": 1},
      {"measurement": "number of liver proteins with altered abundance (total)", "setting": "rat liver proteins [1]; rat liver, two-tailed Student's t-test, 1500 ppm in feed for 7 days", "value": 66},
      {"measurement": "serine protease inhibitor 2 (SPI-2) abundance", "setting": "rat liver proteins [2]", "value": "decrease"},
      {"measurement": "23 kD morphine binding protein abundance", "setting": "rat liver proteins [3]", "value": "increased"},
      {"measurement": "annexin IV abundance", "setting": "rat liver proteins [4]", "value": "dose-dependent increase"},
      {"measurement": "weight gain", "setting": "[5]", "value": "decrease"}
    ]}
  ]
}
